Results reported in patent publication US12533315B2, “Compositions comprising at least one ionic liquid, a polypeptide, and at least one non-ionic surfactant for protein delivery” (PRESIDENT AND FELLOWS OF HARVARD COLLEGE, priority 2019, dated 2026).
“Also recorded” adds a separate entry of the source.

Columns and labels:
[1] = test system: porcine skin
Protocol: (§1) Preparation of FITC-labeled Fab. The Pierce™ FITC Antibody-Labeling Kit (ThermoFisher Scientific) was used to label Fab purchased from Chemical & Scientific Corporation with FITC. Briefly, 925 μL of sterilized water were added into 75 μL of 0.67 M borate buffer that had been attached to the kit, and the labeling buffer (50 mM sodium borate, pH 8.5) was prepared. Lyophilized Fab, 1 mg, was added into 0.5 mL of the labeling buffer and was then melted. The Fab solution, 0.5 mL, was added into the FITC reagent vial that had been attached to the kit and was then pipetted 10 times for the complete melting of the pigment. After the collection of the slightly centrifuged sample solution in the vial's bottom, the reaction was incubated at room temperature for 60 minutes and under light blocking. At 60 minutes later, the column containing the reaction solution was set to the recovery column that had been attached to the kit. Subsequently, 400 μL of the homogeneously suspended purification column suspension solution were added. After centrifugation (about 1,000 μg, 30 to 45 seconds), FITC-labeled Fab was recovered. The amount of antibody labeling was calculated by measuring absorbance at 280 nm and 495 nm according to the following formulae:
(§2) Preparation of the FITC-labeled Fab-CAGE sample solution. The FITC-Fab solution (50 mM sodium borate, pH 8.5) was mixed with 6 CAGE variants at a volume ratio of 50%/50% (v/v %). Regarding CAGE (1:2), the FITC-Fab solution was mixed at volume ratios of 50%/50% (v/v %), 40%/60% (v/v %), and 30%/70% (v/v %). The mixed solutions were allowed to stand at room temperature for 1 hour. Subsequently, 300 μL of the mixed solutions obtained were used for the porcine skin penetrability test.
(§3) Preparation of the FITC-labeled Fab-CAGE-polysorbate sample solutions. Polysorbates 40 and 60 were mixed with the FITC-labeled Fab solution (50 mM sodium borate, pH 8.5) to obtain the final concentration of 3%. Subsequently, the resulting solutions were mixed with CAGE (1:2) at the volume ratios of 30%/70% (v/v %) [=30% CAGE (1:2)] or 40%/60% (v/v %) [=40% CAGE (1:2)]. Because of its nature of being solid at room temperature, polysorbate 60 was dissolved by 30-minute warming at 37° C. prior to the addition. Furthermore, the solution was warmed for 10 minutes at 37° C. to completely dissolve polysorbate 60 and was then mixed with CAGE (1:2). The resulting mixed solutions were allowed to stand at room temperature for 1 hour. The final concentration of antibodies was adjusted to 10 μg/mL.
(§4) Preparation of the porcine skin. In the porcine skin penetrability test, the cryopreserved skin of a WSP was unfrozen at room temperature. A pair of scissors were used to remove hair on the skin surface, followed by washing of the skin surface with PBS. The WSP skin, with the epidermis side upward, was set to the receiver chamber of a longitudinal diffusion cell (diffusion area: 1.77 cm2). The upper portion of the skin was filled with PBS (0.01% sodium azide). A contact gauge of conductivity was used to confirm skin conductivity at 100 Hz. The WSP skin with a resistivity of ≥5.65 kΩ/cm2 only was used in the porcine skin penetrability test based on previous studies [53,54].
(§5) Skin penetrability test using the porcine skin. The porcine skin was punched in a circle with a 36-mm diameter puncher. Subsequently, the porcine skin, with the epidermis side upward, was set on the receiver chamber of a longitudinal diffusion cell (diffusion area: 1.77 cm2). PBS (0.01% sodium azide, pH 7.4) was added into the interior of the receiver chamber and to the upper portion of the skin via a donor chamber, and the skin was allowed to stand in the incubator at 37° C. for 30 minutes. Meanwhile, the solution of the receiver chamber was stirred gently.

[2] = test system: Fab (antihistone H1 antibody fragment; antigen KLH-SSV peptide); settings: Fab 10 μg/mL in 10 mM phosphate buffer
Protocol: The Fab solution (10 mM phosphate buffer, pH 7.4) was mixed with CAGE (1:2) at the volume ratios of 50%/50% (v/v %), 40%/60% (v/v %), and 30%/70% (v/v %), and the mixed solutions were allowed to stand at room temperature for 1 hour. The Fab solution was prepared to obtain the final concentration of 10 μg/mL.
The solution was dialyzed with 10 mM phosphate buffer (pH 7.4) used as the dialysate at room temperature for 48 hours. The dialysate was replaced appropriately during the dialysis. At 48 hours later, the solution thus obtained was stored in a refrigerator at 4° C.
ELISA was conducted according to the method of Chiang et al. [51]. Briefly, 2 μg of KLH-SSV peptide (0.1 M sodium bicarbonate-sodium carbonate buffer, pH 9.6±0.2) were instilled into each well, and the solution was allowed to stand overnight at room temperature. After the removal of the KLH-SSV solution and the washing of each well with PBS (0.05% Tween 20®), 300 μL of SuperBlock Blocking Buffer™ in PBS were added into each well, and the solution was allowed to stand for 1 hour at room temperature. […] At 20 minutes later, SpectraMax i3™ (Molecular Devices) was used to measure absorbance at 405 nm. […]

[3] = test system: Fab (antihistone H1 antibody fragment; antigen KLH-SSV peptide); test: Deactivation-preventing effect of polysorbates on Fab in CAGE (1:2) (ELISA); type: biochemical; settings: for Fab deactivation-preventing effect, qualitative comparison of polysorbates: 30% and 40% CAGE (1:2), 3% to 10% polysorbate (FIGS. 7A, 7B)
Protocol: Preparation of the Fab-CAGE (1:2)-polysorbate mixed solutions. […] Unlike other polysorbates, polysorbate 60 only is solid at room temperature.
The dialysate was replaced appropriately during the dialysis.
Each experiment was conducted in triplicate.

[4] = test system: porcine skin; test: Porcine skin penetrability test of FITC-labeled Fab, confocal fluorescence microscopy; settings: for impact on skin penetration of Fab: 3% polysorbate added to CAGE (1:2); for skin penetration of Fab: 3% polysorbate alone, without CAGE
Protocol: as §1, §2, §3, §4, §5

Choline And GEranate [CAGE (1:2)]
penetration of Fab into skin in vitro [1]: deep penetration into skin
skin penetration-enhancing effect of Fab [1]: most potent
Fab deactivation, dependence on CAGE (1:2) concentration [2]: deactivated in a concentration dependent manner
ELISA signal (absorbance of undialyzed aqueous Fab solution = 100%) ([2]; ≥5% CAGE (1:2), 1 hour room temperature, CAGE removed by dialysis): about 5%

polyoxyethylene (20) sorbitan monolaurate [polysorbate 20]
Fab deactivation-prevention effect (preventive effect) ([3]; 3% polysorbate, 40% CAGE (1:2), Fab 10 μg/mL): about 50%
Fab deactivation-prevention effect (preventive effect) ([3]; 5% polysorbate, 30% CAGE (1:2), Fab 10 μg/mL): ~100%
Fab deactivation-prevention effect (preventive effect) ([3]; 8% polysorbate, 30% CAGE (1:2), Fab 10 μg/mL): ~100%
Fab deactivation-prevention effect (preventive effect) ([3]; 10% polysorbate, 30% CAGE (1:2), compared with 5% and 8%): decreased slightly
Fab deactivation-prevention effect (preventive effect) ([3]; 10% polysorbate, 40% CAGE (1:2), compared to 3% polysorbate 20): comparable
Fab deactivation-prevention effect, dependence on polysorbate concentration ([3]; 40% CAGE (1:2), polysorbate above 3%): decreased with increasing polysorbate 20 concentrations
Fab deactivation ([3]; 50% CAGE (1:2), polysorbate concentrations other than 8%): mostly deactivated
Fab deactivation-prevention effect (preventive effect) ([3]; ≥3% (v/v) polysorbate, 30% CAGE (1:2), Fab 10 μg/mL): prevented

polyoxyethylene (20) sorbitan monooleate [polysorbate 80]
Fab deactivation-preventing effect, qualitative comparison of polysorbates [3]: needs to be at a higher concentration compared to polysorbate 40 and polysorbate 60

polyoxyethylene (20) sorbitan monopalmitate [polysorbate 40]
impact on skin penetration of Fab [4]: do not adversely impact skin penetration of Fab
skin penetration of Fab [4]: did not impact skin penetration of the Fab
Fab deactivation-preventing effect, qualitative comparison of polysorbates [3]: prevented Fab deactivation at a lower concentration than did polysorbate 20; also recorded: equivalent; also recorded: more effective; also recorded: most potent

polyoxyethylene (20) sorbitan monostearate [polysorbate 60]
impact on skin penetration of Fab [4]: do not adversely impact skin penetration of Fab
skin penetration of Fab [4]: did not induce skin penetration of Fab
skin penetration of FITC-labeled Fab ([4]; 30% CAGE + 3% polysorbate 60 versus 30% CAGE alone): Comparable skin penetration
Fab deactivation-prevention effect (preventive effect) ([3]; 3% polysorbate, 30% CAGE (1:2), Fab 10 μg/mL): > 80%
Fab deactivation-preventing effect, qualitative comparison of polysorbates [3]: equivalent; also recorded: more effective; also recorded: most potent
